Reference: patent US10112911B2, “Substituted cyanoguanidines as oral anti-virals” (Abbvie Inc, priority 2012, dated 2018)
Counter-ions that a name gives are not always drawn. Like-named read-outs stand apart in the source and are kept apart here.

How the values were obtained:
[1] = system: RSV (Group A, Long Strain); assay: Cytopathetic effect (CPE) protection antiviral assay, MTT readout; format: cell-based; details: human respiratory syncytial virus, HEp-2, 96 h, read-out: RSV EC50
Protocol: HEp-2 cells and RSV (Group A, Long Strain) were obtained from the American Type Culture Collection (Manassas, Va.).
A cytopathetic effect (CPE) protection assay was performed to determine the ability of a compound to protect the cells from viral infection and thus the CPE induced by viral infection. 96-Well plates were first seeded with […] per well in Dulbecco's modified Eagle's medium (DMEM) containing 10% fetal bovine serum (FBS). One day after the cells were seeded, they were preincubated with serial dilutions of compounds prepared in 100 μL assay medium (DMEM mixed with F12 medium at a 1:1 ratio, supplemented with 2% FBS and 1 mM sodium pyruvate) for 1 hour at 37° C. 100 μL of assay medium containing 0.2 multiplicity of infection (MOI) of RSV was then added to each well of cells. In addition to wells containing infected cells incubated with compounds, each plate also contained replicates of two kinds of controls: (1) Virus control contained cells infected with 0.2 MOI of RSV in assay medium, (2) Uninfected cell control contained cells incubated with assay medium only. After 4 days of incubation at 37° C., the viability of cells was assessed using MTT (Thiazolyl blue tetrazolium bromide, Sigma). A stock solution of MTT, at a concentration of 4 mg/mL in phosphate-buffered saline, was added to all wells at 25 μL per well. Plates were further incubated for 4 hours, and each well was then treated with 50 μL of a solution containing 20% sodium dodecyl sulfate (SDS) and 0.02 N HCl. After an overnight incubation, the plates were measured on a BioTek® microtiter plate reader at wavelengths of 570 nm and 650 nm. The MTT detection is based on the fact that viable (uninfected) cells can reduce the tetrazolium salts into colored formazan products, which can then be quantitated by spectrometry. Based on the spectrometric absorbance of each sample, the percent of protection from CPE, which is an indicator of protection from viral infection, can be calculated for each compound and the 50% effective concentrations (EC50) can be calculated using a nonlinear regression curve fitting equation provided by the GraphPad Prism® 4 software.
Compounds were tested to determine both their antiviral and toxicity to determine their therapeutic window. Determination of the EC50 and TD50 of these active compounds were repeated one additional time to confirm the window.

[2] = system: HEp-2 cells; assay: Cytotoxicity assay (MTT) run in parallel with the antiviral assay; format: cell-based; details: uninfected HEp-2 cells, 4 days incubation, 50% toxicity dose
Protocol: HEp-2 cells and RSV (Group A, Long Strain) were obtained from the American Type Culture Collection (Manassas, Va.). Cytotoxicity of the compounds was determined in experiments done in parallel with the antiviral assays. To do this, 100 μL of assay medium was added to the wells of HEp-2 cells pretreated with 100 μL serially diluted compounds as described above. After 4 days of incubation, the viability of the cells was determined by the MT assay in the same way as detailed in the “Antiviral Assay” method. Results were expressed as 50% toxicity dose (TD50) values. Compounds were tested to determine both their antiviral and toxicity to determine their therapeutic window. Determination of the EC50 and TD50 of these active compounds were repeated one additional time to confirm the window.

[3] = HEp-2 cells, 0.2 MOI RSV, 4 days incubation, protection from CPE (Table 1)
[4] = HEp-2 cells, 0.2 MOI RSV, 4 days, Table 2, determination repeated to confirm window

Compound | EC50 [1, 3] | EC50 [1, 4] | MTT TD50 [2] | EC50 [1]
CCC1CN(c2cnc3ccccc3n2)CCN1/C(=N\C#N)Nc1ccccc1C (centres unmarked) [Example 1.44, N′-cyano-2-ethyl-N-(2-methylphenyl)-4-(quinoxalin-2-yl)piperazine-1-carboximidamide] | 120 nM | 120 nM | 42.06 µM | –
Cc1ccccc1N/C(=N/C#N)N1CCN(c2nc3ccccc3s2)CC1C(C)C (centres unmarked) [Example 1.6, 4-(1,3-benzothiazol-2-yl)-N′-cyano-2-isopropyl-N-(2-methylphenyl)piperazine-1-carboximidamide] | 1590 nM | 1870 nM | >10 µM | –
Cc1ccccc1N/C(=N/C#N)N1CCN(c2ncnc3[nH]ccc23)CC1C(C)C (centres unmarked) [Example 1.11, N′-cyano-2-isopropyl-N-(2-methylphenyl)-4-(7H-pyrrolo[2,3-d]pyrimidin-4-yl)piperazine-1-carboximidamide] | 1410 nM | 1910 nM | >100 µM | –
Cc1ccccc1N/C(=N/C#N)N1CCN(c2nccnc2C#N)CC1C(C)C (centres unmarked) [Example 1.1, N′-cyano-4-(3-cyanopyrazin-2-yl)-2-isopropyl-N-(2-methylphenyl)piperazine-1-carboximidamide] | 890 nM | 890 nM | >100 µM | –
COC(=O)c1cnc(N2CCN(/C(=N\C#N)Nc3ccccc3Cl)C(C(C)C)C2)cn1 (centres unmarked) [Example 1.2, methyl 5-{4-[N-(2-chlorophenyl)-N′-cyanocarbamimidoyl]-3-isopropylpiperazin-1-yl}pyrazine-2-carboxylate] | 1130 nM | 1130 nM | >100 µM | –
Cc1ccccc1N/C(=N/C#N)N1CCN(c2cnc3ccccc3n2)C[C@@H]1C(C)C [Example 1.13, (2S)—N′-cyano-2-isopropyl-N-(2-methylphenyl)-4-(quinoxalin-2-yl)piperazine-1-carboximidamide trifluoroacetate] | – | – | >38.6 µM | 200 nM
Cc1ccccc1N/C(=N/C#N)N1CCN(c2cnc3ccccc3n2)CC1C(C)C (centres unmarked) [Example 1.3, N′-cyano-2-isopropyl-N-(2-methylphenyl)-4-(quinoxalin-2-yl)piperazine-1-carboximidamide trifluoroacetate] | – | – | >32 µM | 250 nM
Cc1ccccc1N/C(=N/C#N)N1CCN(c2ncnc3ccccc23)CC1C(C)C (centres unmarked) [Example 1.8, N′-cyano-2-isopropyl-N-(2-methylphenyl)-4-(quinazolin-4-yl)piperazine-1-carboximidamide] | 450 nM | 300 nM | >100 µM | –
Cc1ccccc1N/C(=N/C#N)N1CCN(c2cnc3cc(F)ccc3n2)CC1C(C)C (centres unmarked) [Example 1.54, N′-cyano-4-(6-fluoroquinoxalin-2-yl)-2-isopropyl-N-(2-methylphenyl)piperazine-1-carboximidamide] | 260 nM | 260 nM | >29.31 µM | –
Cc1ccccc1N/C(=N/C#N)N1CCN(c2nc3cccc(Cl)c3o2)CC1C(C)C (centres unmarked) [Example 1.5, 4-(7-chloro-1,3-benzoxazol-2-yl)-N′-cyano-2-isopropyl-N-(2-methylphenyl)piperazine-1-carboximidamide] | 810 nM | 810 nM | >10 µM | –
CC(C)C1CN(c2cnc3ccccc3n2)CCN1/C(=N\C#N)Nc1ccccc1Cl (centres unmarked) [Example 1.19, N-(2-chlorophenyl)-N′-cyano-2-isopropyl-4-(quinoxalin-2-yl)piperazine-1-carboximidamide] | 150 nM | 150 nM | >27.49 µM | –
Cc1ccccc1N/C(=N/C#N)N1CCN(c2nc3ccccc3o2)CC1C(C)C (centres unmarked) [Example 1.4, 4-(1,3-benzoxazol-2-yl)-N′-cyano-2-isopropyl-N-(2-methylphenyl)piperazine-1-carboximidamide] | 1140 nM | 1140 nM | 28.85 µM | –
Cc1ccccc1N/C(=N/C#N)N1CCN(c2nc3ccccc3c(=O)[nH]2)CC1C(C)C (centres unmarked) [Example 1.10, N′-cyano-2-isopropyl-N-(2-methylphenyl)-4-(4-oxo-3,4-dihydroquinazolin-2-yl)piperazine-1-carboximidamide] | 430 nM | 430 nM | >100 µM | –
Cc1ccccc1N/C(=N/C#N)N1CCN(c2nc3ccccc3[nH]2)CC1C(C)C (centres unmarked) [Example 1.9, 4-(1H-benzimidazol-2-yl)-N′-cyano-2-isopropyl-N-(2-methylphenyl)piperazine-1-carboximidamide] | 4090 nM | 4090 nM | >100 µM | –
Cc1ccc2oc(N3CCN(/C(=N\C#N)Nc4ccccc4C)C(C(C)C)C3)nc2c1 (centres unmarked) [Example 1.7, N′-cyano-2-isopropyl-4-(5-methyl-1,3-benzoxazol-2-yl)-N-(2-methylphenyl)piperazine-1-carboximidamide] | 830 nM | 830 nM | >10 µM | –
Cc1ccccc1N(C)C(=NC#N)N1CCN(c2cnc3ccccc3n2)CC1C(C)C (centres unmarked) [Example 1.75, N′-cyano-2-isopropyl-N-methyl-N-(2-methylphenyl)-4-(quinoxalin-2-yl)piperazine-1-carboximidamide] | 3400 nM | – | – | –
